Values of other authors as cited in patent US20160374912A1, “TOPICALLY APPLICABLE CHEMICAL PEEL COMPOSITION” (L'OREAL, priority 2015, published 2016).

Columns and labels:
[1] = not given; remark: listed apart in the source

| pKA | Log P [1] | SMILES |
| --- | --- | --- |
| 9.77-10.77 | 2.11 | CC(c1ccccc1)c1ccc(O)cc1O (stereo not shown) [Phenylethyl Resorcinol] |
| 9.32-9.81 | 2.47 | Oc1cccc(O)c1 [Resorcinol] |
